Results: ChEMBL document CHEMBL5233234, “True or false? Challenges and recent highlights in the development of aspirin prodrugs” (Eur J Med Chem, 2020)
One block for each compound: values may come before it.

Tests used:
[1] = Half life in human plasma; format: ADME, cell-free
[2] = Half life in human blood; format: ADME, tissue-based
[3] = Half life of compound in human plasma; format: ADME, cell-free
[4] = Half life of compound in PBS buffer at pH 7.4; format: physicochemical
[5] = Half life in human plasma at 10 uM; format: ADME, cell-free
[6] = Half life of compound in PBS buffer at pH 7.4 at 50 uM by HPLC analysis; format: physicochemical
[7] = Half life in human plasma measured after 2 days
[8] = Half life in human liver microsomes at 1 uM measured up to 30 mins by LC-MS/MS analysis; format: ADME, Microsome
[9] = Half life in human plasma by LC-MS/MS analysis; format: ADME, cell-free

half-life [1]: 14 min
SMILES: CC(=O)Oc1ccccc1C(=O)OC[S+](C)[O-] (centres undefined)

half-life [2]: 1 min
SMILES: CC(=O)Oc1ccccc1C(=O)O[C@@H]1CO[C@H]2[C@@H]1OC[C@@H]2OC(=O)c1ccccc1O

half-life [3]: 1 min
SMILES: CC(=O)Oc1ccccc1C(=O)O[C@H]1CO[C@H]2[C@@H]1OC[C@H]2OC(=O)c1ccccc1OC(C)=O

half-life [4]: 26.7 min
SMILES: COc1ccccc1COC1(C)OC(=O)c2ccccc2O1 (centres undefined)

half-life at 10 µM [5]: < 1 min
half-life at 50 µM [6]: 57 min
SMILES: CC(=O)Oc1ccccc1C(=O)OCOC(=O)c1ccc(OCCCO[N+](=O)[O-])c(OC(=O)CCN)c1

half-life at 48 h [7]: 15 min
SMILES: CC(=O)Oc1ccccc1C(=O)Oc1ccccc1C=O

half-life at 1 µM [8]: 28 min
SMILES: CCOP(=O)(OCC)OCC(COC(=O)c1ccccc1OC(C)=O)OP(=O)(OCC)OCC (centres undefined)

t1/2 [9]: 0.183 min
SMILES: CC(=O)Oc1ccccc1C(=O)O[C@H]1CO[C@H]2[C@@H]1OC[C@H]2O[N+](=O)[O-]
